System: gene expression in four canine cell lines: CCL34 (kidney), CRL1430 (thymus), CCL183 (bone), CTAC (thyroid)
Experiment: Effect of test substances or ingredients on gene expression in canine cell lines (Affymetrix Canine-1 and Canine-2 gene chips)
Format: cell-based
Settings: for Direction of gene expression, probe 1605486_at: pyruvate dehydrogenase kinase 4 mRNA; for Direction of gene expression, probe 1605486_at / Direction of gene expression, probe 6282824_at: two concentrations per ingredient (Table 6), vs solvent control; for Direction of gene expression, probe 6282824_at: Canis familiaris carnitine palmitoyl transferase I isoform (CPT1) mRNA, human BC000185; for Direction of gene expression, probe 6283403_at: Sus scrofa carnitine palmitoyltransferase I mRNA, human AK172798
Source text: Cells cultured from mammalian cell lines are used to isolate good quality RNA which is then used for future downstream genomic analysis. All work related to the culturing of the cells is to be done under strict aseptic conditions. Procedure: Removing Cells from the OptiCell Chamber (proceed one OptiCell at a time). Check the cells under a microscope to ensure that the cells are alive before isolating RNA. Remove and discard the cell culture medium. Using the OptiCell knife cut away the top membrane exposing the cells on the lower membrane. Wash the membrane to which the cells are attached three times with 1X PBS. Pipette 600 uL of the Buffer RLT solution (containing R-Mercaptoethanol) onto the center of the membrane to which the cells are attached. Using the cell scraper, gently spread the Buffer RLT over the entire surface of the membrane, and then collect the liquid in one corner. Pipette off the entire volume of Buffer RLT and place into a QIAshredder spin column. RNA Isolation: Centrifuge the QIAshredder spin columns at 14,000 rpm for 2 minutes. Discard the spin column but keep the collection tube and its contents. Add 600 uL of 70% ethanol to the collection tube and mix well by pipetting (the total volume now=1.2 mL). Transfer 600 uL of the cell lysate to an RNeasy mini column and centrifuge for 15 seconds at 14,000 rpm. Discard the flow through but keep the collection tube and the spin column. Transfer the remaining volume of cell lysate (˜600 uL) to the spin column and repeat the centrifugation. Discard the flow through but keep the collection tube and the spin column. Add 700 uL Buffer RW1 to the spin column. Centrifuge for 15 seconds at 14,000 rpm to wash the column. Discard the flow through and the collection tube. Transfer the spin column to a new 2 mL collection tube and add 500 uL Buffer RPE to the column. Centrifuge for 15 seconds at 14,000 rpm. Discard the flow through, keep the collection tube/column. Add another 500 uL Buffer RPE to the column. Centrifuge for 2 minutes at 14,000 rpm. Transfer the spin column to a 1.5 mL collection tube. […] Store the final RNA at −70° C. Gene expression was analyzed using Affymetrix Canine 1 and Canine 2 GeneChip® Arrays available commercially from Affymetrix, Inc., Santa Clara, Calif. 95051. Total RNA is reverse transcribed into cDNA. The cDNA is used to generate cRNA which is fragmented and used as probes for GeneChip hybridization. The gene chip is washed and the hybridization signal is measured with an Affymetrix laser scanner. The hybridization data is then validated and normalized for further analysis. Procedure: All procedures follow exactly as described in GeneChip Expression Analysis Technical Manual (Affymetrix Copyright 1999-2003). Use 5 microgram of total RNA for the first strand cDNA synthesis. Use either Peltier Thermal Cycler PTC-200 or heat block for temperature control on reactions and probe denaturing. The quality control is performed using RNA […] chips with BioAnalyer 2100. Use 100 Format (Midi Array) for the canine genechip. […] TAGs; ALA: EPA: DHA; linoleic acid; stearic acid (SA), conjugated linoleic acid (CLA), GLA; arachidonic acid; lecithin; vitamin A, vitamin D, vitamin E, vitamin K, riboflavin, niacin, pyridoxine, pantothenic acid, folic acid, biotin vitamin C, catechin, quercetin, theaflavin; ubiquinone: lycopene, lycoxanthin; resveratrol; α-lipoic acid; L-carnitine; D-limonene; glucosamine; S-adenosylmethionine; chitosan, various materials containing one or more of these compounds, and various combination thereof on gene expression in four canine cell lines and appropriate controls. The solvent at the higher of the two concentrations was used as a control. Four canine cell lines are used: CCL34 (kidney), CRL1430 (thymus), CCL183 (bone) (Obtained from The American Tissue Culture Collection) and CTAC (thyroid) (See, Measurement of NK Activity in Effector Cells Purified from Canine Peripheral Lymphocytes. Veterinary Immunology and Immunopathology, 35 (1993) 239-251). […]

CC/C=C\C/C=C\C/C=C\CCCCCCCC(=O)O [ALA, α-linolenic acid]
Direction of gene expression, probe 6282455_at (Canis familiaris type I collagen pre-pro-alpha1(I) chain (COL1A1) mRNA, human AB209597): DOWN (down-regulated if its value is <1/1.5 (for across all 4 cell lines analysis) or <½ (for within cell lines analysis)) | Direction of gene expression, probe 1605486_at (human AK096428): UP (up-regulated if it is >1.5 (for across all 4 cell lines analysis) or >2 (for within cell lines analysis))

CCCCC/C=C\C/C=C\C/C=C\C/C=C\CCCC(=O)O [ARA, arachidonic acid]
Direction of gene expression, probe 6282824_at: UP (up-regulated if it is >1.5 (for across all 4 cell lines analysis) or >2 (for within cell lines analysis)) | Direction of gene expression, probe 1602749_at (Homo sapiens BAC clone RP11-44D21 from 4, human AC108866): UP (up-regulated if it is >1.5 (for across all 4 cell lines analysis) or >2 (for within cell lines analysis)) | Direction of gene expression, probe 6283403_at: UP (up-regulated if it is >1.5 (for across all 4 cell lines analysis) or >2 (for within cell lines analysis)) | Direction of gene expression, probe 1605486_at (human AK096428): UP (up-regulated if it is >1.5 (for across all 4 cell lines analysis) or >2 (for within cell lines analysis))

CC/C=C\C/C=C\C/C=C\C/C=C\C/C=C\C/C=C\CCC(=O)O [DHA, docosahexaenoic acid]
Direction of gene expression, probe 6282824_at: UP (up-regulated if it is >1.5 (for across all 4 cell lines analysis) or >2 (for within cell lines analysis)) | Direction of gene expression, probe 6287734_at (Canis familiaris similar to Na/Pi cotransporter 4 (LOC478741) mRNA, human BC017952): UP (up-regulated if it is >1.5 (for across all 4 cell lines analysis) or >2 (for within cell lines analysis)) | Direction of gene expression, probe 1605486_at (human AK096428): UP (up-regulated if it is >1.5 (for across all 4 cell lines analysis) or >2 (for within cell lines analysis))

CC/C=C\C/C=C\C/C=C\C/C=C\C/C=C\CCCC(=O)O [EPA, eicosapentaenoic acid]
Direction of gene expression, probe 6283403_at: UP (up-regulated if it is >1.5 (for across all 4 cell lines analysis) or >2 (for within cell lines analysis)) | Direction of gene expression, probe 1605486_at (human AK096428): UP (up-regulated if it is >1.5 (for across all 4 cell lines analysis) or >2 (for within cell lines analysis)) | Direction of gene expression, probe 6283329_at (similar to secreted frizzled-related protein 4, human AC018634): DOWN (down-regulated if its value is <1/1.5 (for across all 4 cell lines analysis) or <½ (for within cell lines analysis))

CCCCC/C=C\C/C=C\CCCCCCCC(=O)O [LA, linoleic acid]
Direction of gene expression, probe 6282385_at (Canis familiaris Na+-dependent glutamate transporter (GLAST) mRNA, human D26443): DOWN (down-regulated if its value is <1/1.5 (for across all 4 cell lines analysis) or <½ (for within cell lines analysis)) | Direction of gene expression, probe 6282824_at: UP (up-regulated if it is >1.5 (for across all 4 cell lines analysis) or >2 (for within cell lines analysis)) | Direction of gene expression, probe 1605486_at (human AK096428): UP (up-regulated if it is >1.5 (for across all 4 cell lines analysis) or >2 (for within cell lines analysis))

CCCCCCCCCCCCCCCCCC(=O)O [SA, stearic acid]
Direction of gene expression, probe CfaAffx.9845.1.S1_s_at (Canis familiaris similar to leucine rich repeat containing 45 (LOC483375), human NM_144999): UP (up-regulated if it is >1.5 (for across all 4 cell lines analysis) or >2 (for within cell lines analysis)) | Direction of gene expression, probe Cfa.2282.1.S1_at (Canis familiaris similar to pyruvate dehydrogenase kinase isoform 4 (LOC482310) mRNA, human AK096428): UP (up-regulated if it is >1.5 (for across all 4 cell lines analysis) or >2 (for within cell lines analysis)) | Direction of gene expression, probe Cfa.791.4.A1_at (Canis familiaris similar to ribosomal protein L24, transcript variant 2 (LOC478547), human NM_000986): UP (up-regulated if it is >1.5 (for across all 4 cell lines analysis) or >2 (for within cell lines analysis))

conjugated linoleic acid [CLA]
Direction of gene expression, probe Cfa.10478.1.A1_at (Bos taurus similar to Type II inositol-1,4,5-trisphosphate 5-phosphatase precursor (LOC538291), human AC005691): UP (up-regulated if it is >1.5 (for across all 4 cell lines analysis) or >2 (for within cell lines analysis)) | Direction of gene expression, probe Cfa.11267.1.A1_at (Homo sapiens cDNA clone IMAGE: 4456146, human BC024645): DOWN (down-regulated if its value is <1/1.5 (for across all 4 cell lines analysis) or <½ (for within cell lines analysis)) | Direction of gene expression, probe Cfa.11358.1.A1_at (Homo sapiens solute carrier family 20 (phosphate transporter), member 2 (SLC20A2) mRNA, human AF170802): UP (up-regulated if it is >1.5 (for across all 4 cell lines analysis) or >2 (for within cell lines analysis))

From patent publication US20150242566A1, “Methods and Systems for Designing Animal Food Compositions” (Hill's Pet Nutrition, Inc., priority 2005, published 2015)
